The results in this text go back to ChEMBL document CHEMBL3112556, “Novel GlyT1 inhibitor chemotypes by scaffold hopping. Part 2: development of a [3.3.0]-based series and other piperidine bioisosteres” (Bioorg Med Chem Lett, 2014).

Series [1] concerns the target T1, Sodium- and chloride-dependent glycine transporter 2 (Homo sapiens, UniProt Q9Y345).
T1 sequence (Q9Y345 whole entry): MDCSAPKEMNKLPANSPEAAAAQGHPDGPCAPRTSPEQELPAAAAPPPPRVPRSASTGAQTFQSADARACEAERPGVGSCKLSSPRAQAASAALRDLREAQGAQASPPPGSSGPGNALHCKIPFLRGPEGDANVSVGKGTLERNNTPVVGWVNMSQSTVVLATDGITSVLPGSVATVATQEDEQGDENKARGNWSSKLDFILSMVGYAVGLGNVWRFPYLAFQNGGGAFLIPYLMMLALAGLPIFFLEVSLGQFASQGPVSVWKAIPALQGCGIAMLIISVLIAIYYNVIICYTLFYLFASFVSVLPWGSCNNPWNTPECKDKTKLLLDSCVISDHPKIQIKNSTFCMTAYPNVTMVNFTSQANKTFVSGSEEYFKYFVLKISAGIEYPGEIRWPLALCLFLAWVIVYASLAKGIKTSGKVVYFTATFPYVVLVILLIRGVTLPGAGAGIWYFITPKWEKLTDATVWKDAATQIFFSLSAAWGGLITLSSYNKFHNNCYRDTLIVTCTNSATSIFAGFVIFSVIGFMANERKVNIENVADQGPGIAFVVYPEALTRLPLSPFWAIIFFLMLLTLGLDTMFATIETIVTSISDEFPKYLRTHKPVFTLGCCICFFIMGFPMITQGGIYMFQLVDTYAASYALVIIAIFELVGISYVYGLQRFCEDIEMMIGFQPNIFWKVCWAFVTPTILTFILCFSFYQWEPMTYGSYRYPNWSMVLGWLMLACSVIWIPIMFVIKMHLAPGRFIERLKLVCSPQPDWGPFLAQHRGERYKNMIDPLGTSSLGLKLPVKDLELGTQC
Nature of the series: Inhibition of GlyT2 (unknown origin) assessed as [14C]-glycine transport.

Series [2] deals with T2, Sodium- and chloride-dependent glycine transporter 1 (Homo sapiens) (UniProt P48067).
T2 sequence (whole entry): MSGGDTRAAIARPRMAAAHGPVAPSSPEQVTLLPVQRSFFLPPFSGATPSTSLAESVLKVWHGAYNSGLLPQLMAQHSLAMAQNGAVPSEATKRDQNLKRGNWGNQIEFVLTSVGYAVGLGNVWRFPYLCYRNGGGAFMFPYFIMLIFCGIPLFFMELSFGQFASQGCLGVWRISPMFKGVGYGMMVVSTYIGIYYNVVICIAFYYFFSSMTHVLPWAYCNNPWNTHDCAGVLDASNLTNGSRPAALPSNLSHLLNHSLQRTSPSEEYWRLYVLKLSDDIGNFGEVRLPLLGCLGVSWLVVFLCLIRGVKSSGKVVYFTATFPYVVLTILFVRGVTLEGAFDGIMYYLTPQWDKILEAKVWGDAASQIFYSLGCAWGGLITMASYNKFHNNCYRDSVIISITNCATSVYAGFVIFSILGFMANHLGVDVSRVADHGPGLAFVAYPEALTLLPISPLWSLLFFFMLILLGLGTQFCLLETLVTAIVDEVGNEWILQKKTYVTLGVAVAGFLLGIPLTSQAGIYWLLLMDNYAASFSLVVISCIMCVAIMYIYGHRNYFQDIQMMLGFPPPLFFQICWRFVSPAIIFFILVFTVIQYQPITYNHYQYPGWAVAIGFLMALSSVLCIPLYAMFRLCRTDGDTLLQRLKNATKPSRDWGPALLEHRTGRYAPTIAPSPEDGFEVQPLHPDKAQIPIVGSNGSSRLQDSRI
The series can be described thus: Competitive inhibition of GlyT1 (unknown origin) assessed as [14C]-glycine transport by Eadie-Hoffstee plot analysis.

A short description of series [3]: Fraction unbound in rat. The settings on record: in vitro. In kind it is ADME.
Series [4] is described as follows: Inhibition of CYP450 (unknown origin). In kind it is ADME, Homo sapiens.
Series [5] in a line: Metabolic stability in rat liver microsomes assessed as compound remaining after 90 mins. In kind it is ADME. The following applies: read-out: Stability. (In general: Liver microsomes are a subcellular fraction often used to study metabolism.)
In series [6] the target is T3, Sodium- and chloride-dependent glycine transporter 1 (Homo sapiens, UniProt P48067).
T3 sequence (P48067 whole entry): T2 sequence (whole entry)
Nature of the series: Inhibition of GlyT1 (unknown origin) assessed as [14C]-glycine transport.

The structures appear in SMILES notation. Active and inactive are the calls of the source. The calls are words filed in the database; no cut-off is given here.

By IC50 is commonly meant the concentration that inhibits the measured activity by half. On to `Cn1cnc(S(=O)(=O)N2CC3CCC(NC(=O)c4c(F)cccc4F)C3C2)c1` (racemic), for which the IC50 in series [1] was above 30 µM.

On to `Cn1cnc(S(=O)(=O)N2CC(C(NC(=O)c3ccc(Cl)cc3Cl)c3ccccn3)C2)c1` (racemic), for which the “competitive inhibition (active/inactive)” value in series [2] is “Active”. In addition, in series [3], the Fu is listed as 14%. This compound showed an IC50 in series [4] above 10 µM. Besides, the remaining at 1.5 h in series [5] was found to be 75%. As to `CCS(=O)(=O)N1CC2CCC(NC(=O)c3ccc(Cl)cc3Cl)C2C1` (racemic), the IC50 was above 30 µM in series [1] and above 10 µM in series [6].

`CCCS(=O)(=O)N1CC2CCC(NC(=O)c3ccc(Cl)cc3Cl)C2C1` (racemic): the IC50 in series [1] was above 30 µM; in series [6], above 10 µM.

Turning to `CCCCS(=O)(=O)N1CC2CCC(NC(=O)c3ccc(Cl)cc3Cl)C2C1` (racemic), the results for the IC50 in series [1] and in series [6] were above 30 µM and above 10 µM, respectively. The matching figures for `O=C(NC1CCC2CN(S(=O)(=O)c3ccccc3)CC21)c1ccc(Cl)cc1Cl` (racemic): above 30 µM and above 10 µM. The matching figures for `O=C(NC1CCC2CN(S(=O)(=O)c3ccccn3)CC21)c1ccc(Cl)cc1Cl` (racemic): above 30 µM and above 10 µM. In the case of `O=C(NC1CCC2CN(S(=O)(=O)c3cccs3)CC21)c1ccc(Cl)cc1Cl` (racemic), the IC50 in series [1] is above 30 µM; in series [6] it was above 10 µM. The compound `Cn1cnc(S(=O)(=O)N2CC3CCC(NC(=O)c4ccc(Cl)cc4Cl)C3C2)c1` (racemic) displayed a Fu in series [3] of 8.1%. Further, the values for the IC50 in series [1] and in series [4] were above 30 µM and above 10 µM, respectively. Also, in series [5], the remaining at 1.5 h is 30%. Consider `Cn1cc(S(=O)(=O)N2CC3CCC(NC(=O)c4ccc(Cl)cc4Cl)C3C2)nn1` (racemic), for which the IC50 is above 30 µM in series [1] and 0.015 µM in series [6]. `Cn1cnc(S(=O)(=O)N2CC3CCC(NC(=O)c4ccccc4C(F)(F)F)C3C2)c1` (racemic): the “competitive inhibition (active/inactive)” value in series [2] was “Active”. Moreover, the values for the IC50 in series [1] and in series [6] were above 30 µM and 0.112 µM, respectively. With `Cn1cnc(S(=O)(=O)N2CC3CCC(NC(=O)c4ccccc4Cl)C3C2)c1` (racemic), the IC50 was above 30 µM in series [1] and 0.115 µM in series [6]. As for `Cn1cnc(S(=O)(=O)N2CC3CCC(NC(=O)c4ccc(F)cc4F)C3C2)c1` (racemic), the IC50 in series [1] is above 30 µM.

As to `Cn1cnc(S(=O)(=O)N2CC3CCC(NC(=O)c4ccccc4F)C3C2)c1` (racemic), in series [1], the IC50 was above 30 µM. `Cn1cnc(S(=O)(=O)N2CC3CCC(NC(=O)c4cccc(F)c4)C3C2)c1` (racemic): the IC50 in series [1] is above 30 µM; in series [6], above 10 µM.

In the case of `Cn1cnc(S(=O)(=O)N2CC3CCC(NC(=O)c4ccc(F)cc4)C3C2)c1` (racemic), the IC50 in series [1] was above 30 µM. For `Cn1cnc(S(=O)(=O)N2CC3CCC(NC(=O)c4ccc(F)c(F)c4)C3C2)c1` (racemic), the IC50 in series [1] was above 30 µM; in series [6], 1.57 µM. Turning to `Cn1cnc(S(=O)(=O)N2CC3CCC(NC(=O)c4ccc(Cl)cc4)C3C2)c1` (racemic), the IC50 in series [1] is above 30 µM. With `Cn1cnc(S(=O)(=O)N2CC3CCC(NC(=O)c4ccc(Cl)c(Cl)c4)C3C2)c1` (racemic), the IC50 in series [1] is above 30 µM. Same read-out and setting: to `Cn1cnc(S(=O)(=O)N2CC3CCC(NC(=O)C4CCCCC4)C3C2)c1` (racemic) belongs above 30 µM. On to `CCCS(=O)(=O)N1CC(C(NC(=O)c2ccc(Cl)cc2Cl)c2ccccc2)C1` (racemic), for which the “competitive inhibition (active/inactive)” value in series [2] was “Active”. On the same count and under the same terms, to `CCCS(=O)(=O)N1CCC(C(NC(=O)c2ccc(Cl)cc2Cl)c2ccccc2)CC1` (racemic) belongs “Active”; to `Cn1cnc(S(=O)(=O)N2CC(C(NC(=O)c3ccc(Cl)cc3Cl)c3ccccc3)C2)c1` (racemic), “Active”; to `Cn1cnc(S(=O)(=O)N2CC(C(NC(=O)c3ccc(Cl)cc3Cl)c3cccs3)C2)c1` (racemic), “Active”. The same measure, in the same setting: to `Cn1cnc(S(=O)(=O)N2CCC(C(NC(=O)c3ccc(Cl)cc3Cl)c3ccccc3)CC2)c1` (racemic) belongs “Active”; to `Cn1cnc(S(=O)(=O)N2CCC(C(NC(=O)c3ccc(Cl)cc3Cl)c3ccccn3)CC2)c1` (racemic), “Active”. Still for that read-out and setting: to `Cn1cnc(S(=O)(=O)N2CCC(C(NC(=O)c3ccc(Cl)cc3Cl)c3cccs3)CC2)c1` (racemic) belongs “Active”.
